# Test results from patent US8592463B2, “Hedgehog pathway antagonists and therapeutic applications thereof” (Siena Biotech S.p.A., priority 2007, dated 2013).
# Columns and labels:
# Smo receptor = molecular target: T1, Smo receptor (Homo sapiens, UniProt Q99835); assay: Saturation binding of Bodipy-Cyclopamine to stable Smo-FLAG transfected cell line clone 3-5
# T1 construct: expressed in transfected cells; host or cells: FlpIN293 (HEK293-derived)
# Procedure: (§1) The interaction of compounds with the Smo receptor was tested by a displacement binding assay using fluorescent ligand for the Smo receptor (Bodipy-Cyclopamine, Toronto Research Chemical Inc, cat#B674800) as the labeled ligand to be displaced.
# (§2) In order to determine the Kd (concentration of the ligand where 50% of the maximal binding is reached) and the Bmax (maximal amount of ligand which can bind specifically to the receptor in a biological preparation) of the fluorescent ligand, the Specific Binding (SB) was calculated by subtraction Non Specific Binding (NSB) from Total Binding (TB). The TB was determined by adding increasing concentration of Bodipy-Cyclopamine to the cells, while the NSB was determined by adding a mixture of increasing concentration of Bodipy-Cyclopamine with a saturating concentration of an well described antagonist (in this case, N-[3-(1H-benzimidazol-2-yl)-4-chlorophenyl]-3,5-dimethoxy-benzamide (Rubin et al. WO2003011219) at 10 μM was selected) to the cells. For each concentration of Bodipy-Cyclopamine, the SB was calculated by subtracting the value of NSB from TB. From the SB curve Bmax and Kd were calculated. […] The Ki is the concentration of non labeled ligand which inhibits 50% of the specific binding (SB) of the labeled ligand, and corrected for the effective used concentration of the labeled ligand. […]
# [1] = test system: 293FlpIN/clone E-3 mock transfected cells; assay: Saturation binding of Bodipy-Cyclopamine to stable mock transfected cell line clone E-3; design: species or system human
# Procedure: as §1, §2
# T1 sequence (Q99835 28-787): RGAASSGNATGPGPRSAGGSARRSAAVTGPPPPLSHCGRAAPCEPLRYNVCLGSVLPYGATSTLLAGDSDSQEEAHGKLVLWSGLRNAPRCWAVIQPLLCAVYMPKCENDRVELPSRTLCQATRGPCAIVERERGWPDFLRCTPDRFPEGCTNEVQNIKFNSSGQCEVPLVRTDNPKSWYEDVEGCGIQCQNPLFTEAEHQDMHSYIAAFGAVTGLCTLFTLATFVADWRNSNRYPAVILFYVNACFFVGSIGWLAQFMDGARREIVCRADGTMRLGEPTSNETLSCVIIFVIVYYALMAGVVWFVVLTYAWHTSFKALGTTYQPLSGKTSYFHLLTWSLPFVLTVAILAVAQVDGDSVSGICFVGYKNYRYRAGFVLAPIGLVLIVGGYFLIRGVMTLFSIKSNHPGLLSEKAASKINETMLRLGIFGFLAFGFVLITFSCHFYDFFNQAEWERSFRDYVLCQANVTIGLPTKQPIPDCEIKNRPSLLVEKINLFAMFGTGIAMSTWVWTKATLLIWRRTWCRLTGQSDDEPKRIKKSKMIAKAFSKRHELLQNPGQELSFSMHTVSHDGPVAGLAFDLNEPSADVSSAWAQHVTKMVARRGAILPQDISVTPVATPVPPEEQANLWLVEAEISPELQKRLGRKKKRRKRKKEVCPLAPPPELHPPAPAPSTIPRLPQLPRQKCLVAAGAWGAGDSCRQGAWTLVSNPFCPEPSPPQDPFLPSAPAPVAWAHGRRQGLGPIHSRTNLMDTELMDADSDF
substance,measurement,setting,value
Bodipy-Cyclopamine,Kd,Smo receptor,44.3 nM
same,Kd,[1],115 nM
